Test results from patent US20240197809A1, “HAIR CARE COMPOSITION AND BANANA FLOWER EXTRACT AND METHOD FOR HAIR CARE USING THE SAME” (TCI CO., LTD., priority 2022, published 2024).

What was measured:
[1] = system: Human Follicle Dermal Papilla Cells (HFDPC); assay: Hair follicle cell proliferation test (Click-iT EdU flow cytometry); type: cell-based
Text: Hair follicle cells are the foundation of hair. In hair follicle cells at the growth phase, cells in hair follicle bulbs of the hair root can divide once a day. If the proliferation of the hair follicle cells is promoted, the effect of promoting hair growth can be achieved. In this test, the proliferation of human follicle dermal papilla cells treated with the compound I was examined.
Cell line: Human Follicle Dermal Papilla Cells (HFDPC) (purchased from PromoCell; Cat. C-12071), hereinafter referred to as HFDPC cells.
Detection kit: Cell proliferation ELISA reagent detection kit (Click-iT™ Plus EdU Flow Cytometry Assay Kits-Alexa Fluor™ 488 picolyl azide, 50 tests, brand Invitrogen, model C10632), containing composition C (Dimethyl sulfoxide DMSO), composition D (Click-iT™ fixative), composition E (Click-iT™ saponin-based permeabilization and wash reagent), composition F (Copper protectant), and composition G (Click-iT™ EdU buffer additive).
Firstly. […]
The supernatant was removed. […] Finally, a fluorescence signal was measured with a flow cytometer (excitation light: 488 nm; scattered light: 527 nm and 590 nm).
(§1) Here, whether two groups compared have a statistically significant difference or not is analyzed with a single-tailed student t-test to obtain their p-values. […]

[2] = system: dihydrotestosterone content in human prostate cell LNcap; assay: Test of banana flower extract to inhibit dihydrotestosterone (DHT ELISA in testosterone-treated LNcap cells); type: cell-based; conditions: testosterone 2 h, blank group 32.8 pg/mL
Description: A significant increase in the production of dihydrotestosterone (DHT) in hair follicles of the forehead can be observed in young bald female patients. If the dihydrotestosterone can be inhibited, the effect of caring hair follicles and promoting hair growth is achieved. In this test, whether the content of the dihydrotestosterone in human prostate cells treated with different concentrations of banana extract was reduced or not was measured, and a common therapeutic drug Propecia for alopecia androgenetica was used as control.
Cell line: Human prostate cell LNcap (purchased from BCRC; access number Cat. 60088), hereinafter referred to as LNcap cell.
Cell medium (human prostate cell LNcap cell medium): RPMI 1640 Medium (RPMI), powder (Gibco; Cat. 31800-022), 10% fetal bovine serum (FBS) (Gibco; Cat. 10437-028) and 1% Antibiotic-Antimycotic (AA) (Gibco; Cat. 15240-062).
Reagent: 1×DPBS (Gibco, Cat. 14200-075), trypsin (1× Trypsin-EDTA, purchased from Thermo, Cat. FNN0011), Propecia (also referred to as Finasteride, purchased from Sigma; Cat. F1293), Testosterone (purchased from Sigma; Cat. T1500), and cell lysis buffer (purchased from RIPA Lysis and Extraction Buffer (Thermo #89900).
Detection kits: dihydrotestosterone ELISA Reagent Detection Kits (USCN; CEA443Ge).
Firstly, LNcap cells were implanted into a 6-well cell culture plate in a density of 1×10^5 LNcap cells and cultured at 37° C. in a 5% carbon dioxide incubator for 24 h.
The cultured LNcap cells were divided into an experimental group A, an experimental group B, a control group and a blank group. […]
Next, a 200 μL 1× cell lysis buffer was added into the tube to lyse the LNcap cells. […] Finally, the dihydrotestosterone content in the LNcap cells was detected by using a dihydrotestosterone ELISA kit. […]
as §1

O=C(O)CC(O)(CC(=O)O)C(=O)NCCc1ccc(O)c(O)c1 [compound I, N-β-citroyldopamine] was tested, and the “number of the HFDPC cells (blank group = 100%)” value ([1]; 10 μg/mL, Example 3, FIG. 2) was 118.81%, the dihydrotestosterone content ([2]; 5 μg/mL (experimental group B)) was 25.20 pg/mL and the dihydrotestosterone content ([2]; 10 μg/mL (experimental group A)) was 25.03 pg/mL.
CC(C)(C)NC(=O)[C@H]1CC[C@H]2[C@@H]3CC[C@H]4NC(=O)C=C[C@]4(C)[C@H]3CC[C@]12C [Propecia, Finasteride, reference compound] gave a dihydrotestosterone content ([2]; 20 μg/mL (control group)) of 17.16 pg/mL.
With CC(=O)OCC1O[C@H](O[C@]2(CO)O[C@H](COC(C)=O)C(O)C2OC(=O)/C=C/c2ccc(O)cc2)C(OC(C)=O)C(OC(C)=O)[C@@H]1O (stereo partly drawn) [compound II, 6,2′,3′,6′-O-tetraacetyl-3-O-trans-p-coumaroylsucrose] the “number of the HFDPC cells (blank group = 100%)” value ([1]; 100 μM, Example 4, FIG. 3) was 112.54%.
